In publication PMC9406419, “OATD-02 Validates the Benefits of Pharmacological Inhibition of Arginase 1 and 2 in Cancer” (Cancers, 2022):

How the values were obtained:
recombinant human ARG1 = biological target: T1, recombinant human ARG1 (Homo sapiens, UniProt P05089); assay: Recombinant arginase inhibition assay (colorimetric urea detection), ARG1; assay type: biochemical; conditions: recombinant human ARG1, 10 mM L-arginine, 37 °C, 1 h, pH 7.4
T1 construct: made in house; host or cells: E. coli
T1 sequence (P05089 1-322): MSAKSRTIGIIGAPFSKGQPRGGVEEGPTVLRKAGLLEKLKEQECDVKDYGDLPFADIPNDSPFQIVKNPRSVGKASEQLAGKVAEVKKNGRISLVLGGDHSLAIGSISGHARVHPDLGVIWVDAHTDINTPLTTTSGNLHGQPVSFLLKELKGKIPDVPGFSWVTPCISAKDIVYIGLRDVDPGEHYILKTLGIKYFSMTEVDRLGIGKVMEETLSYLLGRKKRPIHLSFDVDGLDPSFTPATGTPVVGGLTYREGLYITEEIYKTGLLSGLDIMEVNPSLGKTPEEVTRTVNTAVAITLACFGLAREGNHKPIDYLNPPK
Protocol: The enzymatic reaction was carried out at 37 °C for 1 h in the assay buffer (100 mM sodium phosphate buffer, 130 mM NaCl, pH 7.4) with the addition of 1 mg/mL BSA in the presence of 200 µM MnCl2 (enzyme cofactor), 10 mM (for ARG1) or 20 mM (for ARG2) of L-arginine hydrochloride (enzyme substrate), and serial dilutions of the test compounds. The inhibition of the arginase activity was determined by colorimetric detection of produced urea, as previously described [29] with minor changes. Briefly, 150 µL of freshly prepared developing reagent (2 mM o-phthaldialdehyde (OPA), 2 mM N-(1-naphthyl)ethylenediamine dihydrochloride (NED), 50 mM boric acid, 1 M sulfuric acid, 0.03% Brij-35) was added to each well, incubated for 20 min at RT, then the absorbance at 515 nm was measured. Normalized values were fitted to a four-parameter equation using GraphPad Prism and IC50 values were determined.

CT26 tumours = assay: Syngeneic CT26 model, combination with epacadostat and anti-PD-L1 antibody; assay type: in vivo, mouse; conditions: suboptimal doses: OATD-02 50 mg/kg PO BID; epacadostat 30 mg/kg PO BID; anti-PD-L1 2.5 mg/kg IP days 8, 10, 12, 14, 16
Protocol: (§1) CT26 and K562 in vivo experiments were conducted at Molecure SA. All experimental procedures were approved by the 1st Local Ethics Committee in Warsaw (Poland). For the syngeneic CT26 model, 7–8-week old BALB/c females (n = 9–18 per group, BALB/cAnNCrl, Charles River Laboratories) were injected subcutaneously in the right flank with 5 × 10^5 CT26 cells. […] Anti-PD-L1 antibody (InVivoPlus anti-mouse PD-L1, clone 10F.9G2, BioXCell, lot 615416D1) was injected intraperitoneally at 2.5 mg/kg on days: 8, 10, 12, 14 and 16 post tumour cells inoculation. Control groups received vehicle (saline) or isotype antibody (InVivoPlus rat IgG2b, anti-KLH, BioXCell, lot 629816D1). For the xenograft K562 model, 7–8 week-old athymic nude mice (n = 8–11 per group, Crl:NU(NCr)-Foxn1^nu, Charles River Laboratories) or NK cell-deficient Fox Chase SCID Beige mice (n = 10–12 per group, CB17.Cg-Prkdc^scidLyst^bg-J/Crl, Charles River Laboratories) were injected subcutaneously in the right flank with 1 × 10^7 K562 cells. […] Tumour volume measured by a digital calliper (width × length × depth × π/6) was recorded three times per week. Animals were euthanized when tumours were necrotized or volume exceeded 2000 mm^3. Renca in vivo efficacy study was performed at Crown Biosciences Inc. (Taicang, China). […] Tumour volumes (length × width^2 × 0.5) were measured twice per week. […]

K562 tumours = assay: K562 xenograft model in T and NK cell-deficient Fox Chase SCID Beige mice; assay type: in vivo, mouse; conditions: 50 mg/kg PO BID from day 7, day 19
Protocol: as §1

K562 cells = assay: Long-term culture of OATD-02-treated K562 cells (viable cell count, propidium iodide); assay type: cell-based, human; conditions: different concentrations, 14 days, medium not replaced
Protocol: CT26.WT (CRL-2638, CT26, mouse colon carcinoma) and K562 (CCL-243, human CML) cell lines were purchased from the ATCC®. Adherent CT26 and non-adherent K562 cells were maintained in the RPMI-1640 medium (Gibco, Life Technologies, Carlsbad, CA, USA) supplemented with 10% foetal bovine serum (FBS, #10270106, ThermoFisher/Gibco™) and 100 U/mL penicillin G and 100 µg/mL streptomycin (Antibiotic-Antimycotic, #15240062, Gibco®) at 37 °C in a humidified 5% CO2 atmosphere. Full-grown monolayers of CT26 cells were trypsinized for 15 min (0.25% Gibco® Trypsin-EDTA), harvested, and passaged several times for expansion. Both cell lines were confirmed at the last used passage to be mycoplasma-free (Mycoalert Detection Kit, Lonza, Basel, Switzerland). The Renca (murine renal adenocarcinoma) cell line was maintained for the in vivo study conducted at Crown Biosciences (Beijing, China). A monolayer culture was grown in DMEM medium supplemented with 10% FBS at 37 °C and 5% CO2. The cells were harvested in exponential growth phase and used for inoculation. […] To assess the antiproliferative effects of OATD-02, the culture medium has not been replaced during this period and the cell density/viability (propidium iodide staining) was determined daily. […]

[1] = Tolerability in animal models; assay type: in vivo

## CN(C)C[C@@H]1CC[C@@H](CCB(O)O)C[C@]1(N)C(=O)O [OATD-02]
Recombinant human ARG1
  IC50: 17 nM
CT26 tumours
  TGI, CT26 tumor growth inhibition - day 24: 33%
K562 tumours
  final TGI, K562 tumor volumes, Fox Chase SCID Beige mice: 47%
K562 cells
  survival of K562 cells in long-term culture: dying faster in a dose-dependent manner
[1]
  safety and tolerability: safe and well tolerated
